Laboratory results published in patent EP0026410A1, “Combinations of active ingredients, their preparation and use, as well as pharmaceutical preparations” (F. HOFFMANN-LA ROCHE & CO. Aktiengesellschaft, priority 1979, dated 1981).
In brackets after ≈: the same amount, converted by molar mass. Like-named read-outs stand apart in the source and are kept apart here.

Legend:
Pseudomonas aeruginosa [1] = assay: In vitro M.I.C. of Nocardicin A, peptide and their mixtures against Pseudomonas aeruginosa strains; format: cell-based
Serratia marcescens = assay: In vitro M.I.C. of Nocardicin A, peptide and mixtures against Serratia marcescens; format: cell-based
Proteus vulgaris = assay: In vitro M.I.C. of Nocardicin A, peptide and mixtures against Proteus vulgaris; format: cell-based
P. morganii = assay: In vitro M.I.C. of Nocardicin A, peptide and mixtures against Proteus species; format: cell-based; details: Morganella morganii; P. morganii Stamm 501041; substance alone
P. rettgeri = assay: as above; format: cell-based; details: Providencia rettgeri; P. rettgeri Stamm 503010; substance alone
Ps. aeruginosa = assay: In vivo activity in Pseudomonas septicaemia of mice; parameters: species or system Mäusen; details: sc, 5 h
Excerpt: Die in vivo Aktivitäten der erfindungsgemässen Kombinationen wurden mittels Pseudomonas-Septikämien an Mäusen getestet, wobei die Verabreichung eine Stunde, 3 Stunden -und 5 Stunden nach intraperitonealer Infektion erfolgte. Die Ergebnisse, die mit (1R)-1-(L-Norvalylamino)-ethylphosphonsäure und Nocardicin A erreicht wurden, sind in der folgenden Tabelle VI zusammengefasst.

P. mirabilis = assay: In vitro M.I.C. of Nocardicin A, peptide and mixtures against Proteus species; format: cell-based
Pseudomonas aeruginosa [2] = assay: Microtiter checkerboard method, M.I.C. after 18 h incubation; format: cell-based; details: for MIC: Pseudomonas aeruginosa
Procedure: Die in vitro Aktivität der erfindungsgemässen Kombinationen kann auch nach der Mikrotiter-Schachbrett-Methode gezeigt werden. Bei dieser Methode werden Filter-sterilisierte Grundlösungen von Verbindungen I und einem Nocardicin-Antibiotikum hergestellt, die 4,8mal so konzentriert sind wie die zu testenden Lösungen. Aliquote Teile des Kulturmediums (50 ul)wurden in alle 12 (1-12) x 8 (A-H) Löcher der Mikrotiter-Platte gegeben, mit Ausnahme des Loches 12H. Jeweils 50 µl der Peptid-Lösung wurden dann in jedes Loch der zwölften Reihe gegeben und 100 µl in das Loch 12H. Die peptidhaltigen Lösungen wurden dann innerhalb der Reihen A-H dadurch verdünnt, dass man jeweils 50 µl aus der Reihe 12 in die Reihe 11 übertrug, gut vermischte, und wieder jeweils 50 µl in die Reihe 10 übertrug und dieses Prozedere bis zur Reihe 2 wiederholte, so dass die Reihe 1 ausgelassen wurde. Dann wurden je 50 µl einer Lösung eines Nocardicin-Antibiotikums in jedes Loch der Reihe H gegeben und ebenfalls in der vorstehend beschriebenen Weise verdünnt innerhalb der Reihen 1-12, wobei das letzte Loch in jeder Reihe wiederum ausgelassen wurde. Nachdem die Volumina überall durch Zusatz von 50 ul Nährflüssigkeit auf 100 µl gebracht wurden, wurden jeweils 20 µl einer 1/1000 Verdünnung einer über Nacht angesetzten Kultur eines Testorganismus zugesetzt. Durch Schütteln wurde für eine gleichmässige Verteilung gesorgt, woraufhin die Platten mit Klebstreifen verschlossen wurden. Die minimalen Hemmkonzentrationen wurden als diejenigen minimalen Konzentrationen bestimmt, die nach 18-stündiger Inkubation der Kulturen eine sichtbare Trübung verhinderten. Die Ergebnisse mit (1R)-1-(L-Norvalylamino)-ethylphosphonsäure und Nocardicin D sind in der Tabelle V zusammengestellt.

[3] = Tabelle IV, Ps. aeruginosa (strain not named), substance alone
[4] = Tabelle IV, S. marcescens (strain not named), substance alone
[5] = Tabelle IV, P. vulgaris (strain not named), substance alone
[6] = NCTC2099, Stamm NCTC 2099, substance alone
[7] = NCTC2100, Stamm NCTC 2100, substance alone
[8] = Stamm NC1B 8295, substance alone
[9] = ATCC14756, S. marcescens Stamm ATCC 14756, substance alone
[10] = S. marcescens Stamm 542007, substance alone
[11] = S. marcescens Stamm 542010, substance alone
[12] = S. marcescens Stamm 542012, substance alone
[13] = S. marcescens Stamm 542017, substance alone
[14] = P. mirabilis Stamm 502010, substance alone
[15] = P. mirabilis Stamm 502012, substance alone
[16] = P. mirabilis Stamm 502015, substance alone
[17] = P. mirabilis Stamm 502038, substance alone
[18] = P. vulgaris Stamm 505030, substance alone
[19] = P. vulgaris Stamm 505031, substance alone

SMILES: CCC[C@H](N)C(=O)NCP(=O)(O)O [1-(L-Norvalylamino)-methylphosphonsäure]
- MIC (Pseudomonas aeruginosa [1]; [3]): > 128 µg/mL
- MIC (Serratia marcescens; [4]): 4 µg/mL (≈ 19 µM)
- MIC (Proteus vulgaris; [5]): 45.2 µg/mL (≈ 215 µM)

SMILES: N[C@H](CCOc1ccc(/C(=N/O)C(=O)N[C@H]2CN([C@@H](C(=O)O)c3ccc(O)cc3)C2=O)cc1)C(=O)O [Nocardicin A]
- MIC (Pseudomonas aeruginosa [1]; [6]): 16 µg/mL (≈ 32 µM)
- MIC (Pseudomonas aeruginosa [1]; [7]): 32 µg/mL (≈ 63.9 µM)
- MIC (Pseudomonas aeruginosa [1]; Stamm 511004, substance alone): 32 µg/mL (≈ 63.9 µM)
- MIC (Pseudomonas aeruginosa [1]; Stamm 511005, substance alone): 4 µg/mL (≈ 7.99 µM)
- MIC (Pseudomonas aeruginosa [1]; Stamm 511007, substance alone): 16 µg/mL (≈ 32 µM)
- MIC (Pseudomonas aeruginosa [1]; Stamm 511012, substance alone): 32 µg/mL (≈ 63.9 µM)
- MIC (Pseudomonas aeruginosa [1]; Stamm 511015, substance alone): 16 µg/mL (≈ 32 µM)
- MIC (Pseudomonas aeruginosa [1]; Stamm 511016, substance alone): 64 µg/mL (≈ 128 µM)
- MIC (Pseudomonas aeruginosa [1]; Stamm 511019, substance alone): 64 µg/mL (≈ 128 µM)
- MIC (Pseudomonas aeruginosa [1]; Stamm 511026, substance alone): 181 µg/mL (≈ 362 µM)
- MIC (Pseudomonas aeruginosa [1]; Stamm 511027, substance alone): 8 µg/mL (≈ 16 µM)
- MIC (Pseudomonas aeruginosa [1]; Stamm 511028, substance alone): 16 µg/mL (≈ 32 µM)
- MIC (Pseudomonas aeruginosa [1]; Stamm 511029, substance alone): 256 µg/mL (≈ 512 µM)
- MIC (Pseudomonas aeruginosa [1]; Stamm 511030, substance alone): 16 µg/mL (≈ 32 µM)
- MIC (Pseudomonas aeruginosa [1]; Stamm 511032, substance alone): 32 µg/mL (≈ 63.9 µM)
- MIC (Pseudomonas aeruginosa [1]; Stamm 511033, substance alone): 32 µg/mL (≈ 63.9 µM)
- MIC (Pseudomonas aeruginosa [1]; Stamm 511036, substance alone): 16 µg/mL (≈ 32 µM)
- MIC (Pseudomonas aeruginosa [1]; Stamm 511038, substance alone): 256 µg/mL (≈ 512 µM)
- MIC (Pseudomonas aeruginosa [1]; Stamm 511041, substance alone): 32 µg/mL (≈ 63.9 µM)
- MIC (Pseudomonas aeruginosa [1]; [8]): > 256 µg/mL
- MIC (Pseudomonas aeruginosa [1]; [3]): 8 µg/mL (≈ 16 µM)
- MIC (P. morganii): 8 µg/mL (≈ 16 µM)
- MIC (P. rettgeri): 8 µg/mL (≈ 16 µM)
- ED50 (Ps. aeruginosa; Ps. aeruginosa 143724, s.c. 3 x (1, 3, 5 h after i.p. infection), substance alone, read-out: CD50 (the source's name)): > 50 mg/kg
- ED50 (Ps. aeruginosa; Ps. aeruginosa 143811, s.c. 3 x (1, 3, 5 h after i.p. infection), substance alone, read-out: CD50 (the source's name)): > 50 mg/kg
- ED50 (Ps. aeruginosa; Ps. aeruginosa BA, s.c. 3 x (1, 3, 5 h after i.p. infection), substance alone, read-out: CD50 (the source's name)): 43 mg/kg
- ED50 (Ps. aeruginosa; Ps. aeruginosa M 7801, s.c. 3 x (1, 3, 5 h after i.p. infection), substance alone, read-out: CD50 (the source's name)): > 50 mg/kg
- MIC (Serratia marcescens; [9]): 8 µg/mL (≈ 16 µM)
- MIC (Serratia marcescens; [10]): 11.3 µg/mL (≈ 22.6 µM)
- MIC (Serratia marcescens; [11]): 11.3 µg/mL (≈ 22.6 µM)
- MIC (Serratia marcescens; [12]): 8 µg/mL (≈ 16 µM)
- MIC (Serratia marcescens; [13]): 16 µg/mL (≈ 32 µM)
- MIC (Serratia marcescens; [4]): 16 µg/mL (≈ 32 µM)
- MIC (P. mirabilis; [14]): 8 µg/mL (≈ 16 µM)
- MIC (P. mirabilis; [15]): 8 µg/mL (≈ 16 µM)
- MIC (P. mirabilis; [16]): 4 µg/mL (≈ 7.99 µM)
- MIC (P. mirabilis; [17]): 32 µg/mL (≈ 63.9 µM)
- MIC (Proteus vulgaris; [18]): 4 µg/mL (≈ 7.99 µM)
- MIC (Proteus vulgaris; [19]): 32 µg/mL (≈ 63.9 µM)
- MIC (Proteus vulgaris; [5]): 64 µg/mL (≈ 128 µM)

SMILES: CCC[C@H](N)C(=O)N[C@@H](C)P(=O)(O)O [(1R)-1-(L-Norvalylamino)-ethylphosphonsäure]
- MIC (Pseudomonas aeruginosa [2]; Stamm 511019, substance alone): > 256 µg/mL
- MIC (Pseudomonas aeruginosa [2]; Stamm 511027, substance alone): 64 µg/mL
- MIC (Pseudomonas aeruginosa [2]; Stamm 511030, substance alone): 256 µg/mL
- MIC (Pseudomonas aeruginosa [1]; [6]): 256 µg/mL (≈ 1140 µM)
- MIC (Pseudomonas aeruginosa [1]; [7]): > 256 µg/mL
- MIC (Pseudomonas aeruginosa [1]; Stamm 511004, substance alone): > 256 µg/mL
- MIC (Pseudomonas aeruginosa [1]; Stamm 511005, substance alone): 4 µg/mL (≈ 17.8 µM)
- MIC (Pseudomonas aeruginosa [1]; Stamm 511007, substance alone): > 256 µg/mL
- MIC (Pseudomonas aeruginosa [1]; Stamm 511012, substance alone): > 256 µg/mL
- MIC (Pseudomonas aeruginosa [1]; Stamm 511015, substance alone): 128 µg/mL (≈ 571 µM)
- MIC (Pseudomonas aeruginosa [1]; Stamm 511016, substance alone): 32 µg/mL (≈ 143 µM)
- MIC (Pseudomonas aeruginosa [1]; Stamm 511019, substance alone): > 256 µg/mL
- MIC (Pseudomonas aeruginosa [1]; Stamm 511026, substance alone): > 256 µg/mL
- MIC (Pseudomonas aeruginosa [1]; Stamm 511027, substance alone): 45 µg/mL (≈ 201 µM)
- MIC (Pseudomonas aeruginosa [1]; Stamm 511028, substance alone): > 256 µg/mL
- MIC (Pseudomonas aeruginosa [1]; Stamm 511029, substance alone): > 256 µg/mL
- MIC (Pseudomonas aeruginosa [1]; Stamm 511030, substance alone): 256 µg/mL (≈ 1140 µM)
- MIC (Pseudomonas aeruginosa [1]; Stamm 511032, substance alone): 256 µg/mL (≈ 1140 µM)
- MIC (Pseudomonas aeruginosa [1]; Stamm 511033, substance alone): 256 µg/mL (≈ 1140 µM)
- MIC (Pseudomonas aeruginosa [1]; Stamm 511036, substance alone): 256 µg/mL (≈ 1140 µM)
- MIC (Pseudomonas aeruginosa [1]; Stamm 511038, substance alone): 256 µg/mL (≈ 1140 µM)
- MIC (Pseudomonas aeruginosa [1]; Stamm 511041, substance alone): 256 µg/mL (≈ 1140 µM)
- MIC (Pseudomonas aeruginosa [1]; [8]): 64 µg/mL (≈ 285 µM)
- MIC (P. morganii): 64 µg/mL (≈ 285 µM)
- MIC (P. rettgeri): 4 µg/mL (≈ 17.8 µM)
- ED50 (Ps. aeruginosa; read-out: CD50, Ps. aeruginosa 143724, s.c. 3 x (1, 3, 5 h after i.p. infection), substance alone): > 200 mg/kg
- ED50 (Ps. aeruginosa; read-out: CD50, Ps. aeruginosa 143811, s.c. 3 x (1, 3, 5 h after i.p. infection), substance alone): > 200 mg/kg
- ED50 (Ps. aeruginosa; read-out: CD50, Ps. aeruginosa BA, s.c. 3 x (1, 3, 5 h after i.p. infection), substance alone): > 200 mg/kg
- ED50 (Ps. aeruginosa; read-out: CD50, Ps. aeruginosa M 7801, s.c. 3 x (1, 3, 5 h after i.p. infection), substance alone): 135 mg/kg
- MIC (Serratia marcescens; [9]): 1 µg/mL (≈ 4.46 µM)
- MIC (Serratia marcescens; [10]): 1 µg/mL (≈ 4.46 µM)
- MIC (Serratia marcescens; [11]): 1 µg/mL (≈ 4.46 µM)
- MIC (Serratia marcescens; [12]): 1 µg/mL (≈ 4.46 µM)
- MIC (Serratia marcescens; [13]): 1 µg/mL (≈ 4.46 µM)
- MIC (P. mirabilis; [14]): 22.6 µg/mL (≈ 101 µM)
- MIC (P. mirabilis; [15]): 22.6 µg/mL (≈ 101 µM)
- MIC (P. mirabilis; [16]): 22.6 µg/mL (≈ 101 µM)
- MIC (P. mirabilis; [17]): 22.6 µg/mL (≈ 101 µM)
- MIC (Proteus vulgaris; [18]): 5.7 µg/mL (≈ 25.4 µM)
- MIC (Proteus vulgaris; [19]): 8 µg/mL (≈ 35.7 µM)

SMILES: N[C@H](CCOc1ccc(C(=O)C(=O)N[C@H]2CN([C@@H](C(=O)O)c3ccc(O)cc3)C2=O)cc1)C(=O)O [Nocardicin D]
- M.I.C. (Pseudomonas aeruginosa [2]; Stamm 511019, substance alone): >512 µg/mL
- M.I.C. (Pseudomonas aeruginosa [2]; Stamm 511027, substance alone): 512 µg/mL
- M.I.C. (Pseudomonas aeruginosa [2]; Stamm 511030, substance alone): 128 µg/mL
